According to article PMC10525135, “Computationally Designed AMPs with Antibacterial and Antibiofilm Activity against MDR Acinetobacter baumannii” (Antibiotics, 2023):
Converted amounts (≈) assume the structure as drawn. Read-outs that look alike come from different tables or passages of the source. Residues, ends and D or L forms follow the SMILES beside them.

Experiments:
[1] = system: AB5075 pre-formed (24 h) biofilm; type: cell-based, Acinetobacter baumannii
Experimental: The MBEC assay measures the lowest concentration of an antimicrobial agent that can eradicate established biofilms. Using the MBEC assay in the Biofilm Inoculator 96-well base (Innovotech Cat #1911, Edmonton, AB, Canada) and following the manufacturer’s protocol, 150 µL (n = 6) of 1 × 10^6 CFU/mL of AB5075 in TSB was incubated for 24 h at 37 °C at 110 rpm for biofilm formation. The lid containing pegs was rinsed with sterile PBS for 5 min, and then the lid was placed in a peptide challenge polypropylene 96-well plate containing a decreasing series of drug concentrations and incubated for 24 h at 37 °C at 110 rpm. Pegs were washed three times with tap water, heat-fixed for 70 °C for 1 h, and stained with 0.1% crystal violet for 15 min. Excess stain was rinsed off with tap water and allowed to dry. Stained pegs were resolubilized with 200 µL of 33% glacial acetic acid. OD590 was obtained to measure the remaining biofilm. Pegs with only bacteria served as the growth control and 100% biofilm control. Media alone and media with a peptide/drug served as the sterility controls. […] The experiment was performed twice.

Galleria mellonella = test: Waxworm toxicity testing; conditions: 10 µg in 10 µL PBS injected per worm, 10 worms per group, 72 h
Experimental: Galleria mellonella were obtained from Vanderhorst Wholesale (Saint Mary’s, OH, USA), and 10 worms with equal weights between 200 to 300 mg were assigned to each group. […] The experiment was performed twice, and the results were analyzed by the Mantel–Cox test.

[2] = system: A. baumannii strains AB5075, BAA-1710, -1794, and -1800; type: cell-based, Acinetobacter baumannii; conditions: summary over MDR A. baumannii strains of Table 3
Experimental: (§1) Minimum inhibitory concentration (n = 3) was performed according to the CLSI protocols with a minor modification, in which Difco Mueller Hinton broth (BD 275730, Franklin Lakes, NJ, USA) was used instead of cation-adjusted Mueller Hinton broth following Wiegand et al.’s standardized protocol for testing AMPs. Bacteria were grown overnight in an opaque colony, and the concentration was determined using McFarland’s technique. An aliquot of 50 µL of 1 × 10^6 CFU/mL of bacteria was incubated with a decreasing series of peptide concentration to achieve a final bacterial concentration of 5 × 10^5 CFU/mL at 37 °C 5% CO2 for 20–24 h in Difco Mueller Hinton broth. Dilutions were performed in a 96-well polypropylene plate (Corning 3879, Corning, NY, USA). This is critical to avoid peptide binding to the plate. Results were obtained by measuring bacterial growth at OD600 nm. LL-37 and polymyxin B were used as positive controls. Samples containing only the medium and medium with peptides were used as the sterility controls and samples containing only bacteria in MHB served as the growth control. Each experiment was performed twice, and one representative experiment is shown.

A. baumannii BAA-1710 [3] = type: cell-based, Acinetobacter baumannii; conditions: A. baumannii BAA-1710; Difco Mueller Hinton broth, 5 × 10^5 CFU/mL, 37 °C 5% CO2, 20–24 h, OD600, n = 3
Experimental: as §1

[4] = system: A. baumannii AB5075 (MRSN959); type: cell-based, Acinetobacter baumannii
Experimental: as §1

A. baumannii BAA-1794 = type: cell-based, Acinetobacter baumannii; conditions: A. baumannii BAA-1794; Difco Mueller Hinton broth, 5 × 10^5 CFU/mL, 37 °C 5% CO2, 20–24 h, OD600, n = 3
Experimental: as §1

A. baumannii BAA-1800 = type: cell-based, Acinetobacter baumannii; conditions: A. baumannii BAA-1800; Difco Mueller Hinton broth, 5 × 10^5 CFU/mL, 37 °C 5% CO2, 20–24 h, OD600, n = 3
Experimental: as §1

A. baumannii AB5075 = test: Time-kill kinetics; type: cell-based, Acinetobacter baumannii; conditions: AB5075, highest concentration (5 µg/mL)
Text: (§2) At the various timepoints, samples were serially diluted, and CFUs were counted by spot plating on a Tryptic Soy agar.

A. baumannii BAA-1710 [5] = test: Time-kill kinetics; type: cell-based, Acinetobacter baumannii; conditions: BAA-1710, all tested concentrations (1×, 5×, 10× MIC; MIC = 0.5 µg/mL)
Text: as §2

AB5075 = test: Membrane depolarization assay (DiSC3(5)); type: cell-based, Acinetobacter baumannii; conditions: 50 µg/mL, DiSC3(5) fluorescence, 20 min, versus untreated bacteria
Experimental: A membrane depolarization assay was performed using a cationic dye, 3,3′-dipropylthiadicarbocyanine iodide (DiSC3(5)) as we previously described, with some modifications. Briefly, AB5075 was grown overnight on a Tryptic Soy agar, and opaque colonies were emulsified in DPBS (Gibco) until the 0.5 McFarland standard was achieved (~1 × 10^8 CFU/mL). A bacterial suspension of 4 × 10^7 CFU/mL was prepared and washed twice with DPBS, and then bacteria were resuspended in DPBS containing 10 µg/mL of DiSC3(5). An aliquot of 100 µL of the bacteria DiSC3(5) suspension was added to a black 96-well flat plate (Ultracruz Polypropylene Microplate sc-204462, Santacruz, CA, USA). The plate was incubated at room temperature in BioTek Cytation 5 and monitored until fluorescence stopped decreasing. An aliquot of 100 µL of peptide or DPBS (the untreated control) was added to each well (a final concentration of peptide of 50 µg/mL) and the plate was immediately returned to the plate reader. […] Readings were taken every 15 s for 20 min (excitation = 622 nm; emission = 670 nm). The experiment was repeated twice.

CC[C@H](C)CCCCC(=O)N[C@@H](CCN)C(=O)N[C@H](C(=O)N[C@@H](CCN)C(=O)N[C@H]1CCNC(=O)[C@H]([C@@H](C)O)NC(=O)[C@H](CCN)NC(=O)[C@H](CCN)NC(=O)[C@H](CC(C)C)NC(=O)[C@@H](Cc2ccccc2)NC(=O)[C@H](CCN)NC1=O)[C@@H](C)O [Polymyxin B] (HELM PEPTIDE1{[CC[C@H](C)CCCCC(=O)[*:2]].[Dab].T.[Dab].[Dab].[Dab].[dF].L.[Dab].[Dab].T}$PEPTIDE1,PEPTIDE1,5:R3-11:R2$$$V2.0; N-terminus assumed; bridges inferred)
Concentration giving complete eradication of bacteria (reduction in CFU) in pre-formed biofilms ([1]; AB5075 pre-formed biofilm, CFU determination): 2 µg/mL | MBEC ([1]; MBEC100, AB5075 24 h pre-formed biofilm on pegs, 24 h challenge, crystal violet OD590, n = 6): * 2 µg/mL | crystal violet-stained biofilm mass maintained ([1]; treated with between 2 and 16 µg/mL, AB5075 pre-formed biofilm): up to 40% | Survival of worms (Galleria mellonella): 80% | MIC across the tested strains [2]: 0.25 to 0.5 µg/mL | MIC (A. baumannii BAA-1710 [3]): 0.5 µg/mL (≈ 0.415 µM) | MIC ([4]; A. baumannii AB5075 (MRSN959), Difco Mueller Hinton broth, 5 × 10^5 CFU/mL, 37 °C 5% CO2, 20–24 h, OD600, n = 3): 0.25 to 0.5 µg/mL | MIC ([4]; A. baumannii AB5075, experiment shown in Figure S2): 0.5 µg/mL (≈ 0.415 µM) | MIC (A. baumannii BAA-1794): 0.5 µg/mL (≈ 0.415 µM) | MIC (A. baumannii BAA-1800): 0.5 µg/mL (≈ 0.415 µM) | Time to complete killing (A. baumannii AB5075): ≤ 3 h | Killing within 3 h (A. baumannii BAA-1710 [5]): failed to kill | Membrane depolarization (AB5075): significant membrane depolarization effect
